Experimental data reported in paper PMC6271500, “Bowman-Birk Protease Inhibitor from Vigna unguiculata Seeds Enhances the Action of Bradykinin-Related Peptides” (Molecules, 2014).
Values belong to the substance of their own block, whether it stands above or below them. Where no end group is shown, it is not given here.

Legend:
[1] = molecular target: Bk2, [Val]1[Thr]6-bradykinyl-Gln-Ser relative to bradykinin: R1V;S6T; C-terminal extension Gln10-Ser11; test: Intrinsic tryptophan (Trp82) fluorescence quenching titration; excitation 295 nm, emission 300-400 nm (analysed at 355 nm); conditions: 25 °C, not stated for the fluorescence assays at pH 5.0, 7.4 and 9.0 (2 mM Tris-HCl pH 7.4 is given only for DLS and CD)
[2] = molecular target: Bk1, [Val]1[Thr]6-bradykinyl-Val-Asp relative to bradykinin: R1V;S6T; C-terminal extension Val10-Asp11; test: as above; conditions: 25 °C, not stated for the fluorescence assays at pH 5.0, 7.4 and 9.0 (2 mM Tris-HCl pH 7.4 is given only for DLS and CD)
[3] = molecular target: Bradykinin (Bk) (UniProt P01042); test: as above; conditions: 25 °C, not stated for the fluorescence assays at pH 5.0, 7.4 and 9.0 (2 mM Tris-HCl pH 7.4 is given only for DLS and CD)
UniProt P01042, sequence (P01042 whole entry, looked up): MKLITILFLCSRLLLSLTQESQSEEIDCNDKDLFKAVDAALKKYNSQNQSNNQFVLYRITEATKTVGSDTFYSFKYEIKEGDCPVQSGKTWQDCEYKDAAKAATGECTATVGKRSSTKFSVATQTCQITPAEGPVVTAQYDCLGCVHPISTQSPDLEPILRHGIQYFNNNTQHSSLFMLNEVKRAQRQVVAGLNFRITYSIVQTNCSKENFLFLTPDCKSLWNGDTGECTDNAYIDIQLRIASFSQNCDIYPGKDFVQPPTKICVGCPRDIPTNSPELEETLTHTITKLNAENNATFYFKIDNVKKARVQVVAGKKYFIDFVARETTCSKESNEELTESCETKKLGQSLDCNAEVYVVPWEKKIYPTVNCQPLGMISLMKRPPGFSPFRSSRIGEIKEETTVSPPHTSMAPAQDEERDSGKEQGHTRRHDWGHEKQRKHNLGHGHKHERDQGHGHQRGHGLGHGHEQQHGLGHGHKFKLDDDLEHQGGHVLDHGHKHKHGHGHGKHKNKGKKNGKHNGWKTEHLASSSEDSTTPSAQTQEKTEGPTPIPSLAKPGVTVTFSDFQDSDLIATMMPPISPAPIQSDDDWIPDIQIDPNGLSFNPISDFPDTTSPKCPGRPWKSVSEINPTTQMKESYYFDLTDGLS

[4] = system: BTCI; test: Fluorescence quenching of BTCI by Bk-related peptides; format: binding, Vigna unguiculata; conditions: for Binding constant Kb (association) of BTCI in complex with peptide / Stern-Volmer quenching constant KSV of BTCI in complex with peptide: BTCI 25 µM, peptide 25-500 µM; for Stern-Volmer quenching constant KSV of BTCI in complex with peptide: excitation 295 nm, emission at 355 nm
Description: Fluorescence measurements were performed at pH 5.0, 7.4 and 9.0 and 25 °C using the Jasco FP-6500 spectrofluorimeter (Jasco Analytical Instruments) coupled to a Jasco ETC-273T Peltier system (Jasco Analytical Instruments) with water circulation. Both excitation and emission slit were fitted to 5.0 nm and the excitation and emission wavelength were 295 nm and 300–400 nm, respectively. The concentration of BTCI was 25 µM, whereas the concentration of Bk and Bk-related peptides varied from 25 to 500 µM. The BTCI in complex with peptides were investigated by fluorescence quenching as a function of pH. The averages of five fluorescence spectra were recorded and processed by the program Spectra Manager (Jasco Analytical Instruments). The fluorescence emissions were fitted according to the classic Stern-Volmer equation (Equation (2)): F0/F = 1 + KSV[Q] (2) where F and F0 are the fluorescence intensities in the presence and absence of quencher, respectively, KSV is Stern-Volmer constant and Q is the concentration of the quencher.
The binding constants for BTCI, Bk and Bk-related peptides interaction were calculated according to Equation (3): Log[(F0 − F)/F] = LogKb + nLog[Q] (3) where Kb is the binding constant and n is the number of binding sites per BTCI [47].

[5] = Dynamic light scattering, free peptides and free BTCI; format: physicochemical; conditions: 25 µM, 2 mM Tris-HCl pH 7.4, 37 °C
Description: (§1) The hydrodynamic properties of the BTCI through the complex formation with Bk and analogues were monitored using DLS technique with laser source operated at 800 nm on the DynaPro LSR model (Wyatt Technology Corporation, Santa Barbara, CA, USA). The internal temperature was controlled by a Peltier system coupled to the detector. The Bk, Bk-related peptides, BTCI and BTCI-Bk, BTCI-Bk-related peptides complexes, were incubated for 30 minutes in 2 mM Tris-HCl pH 7.4 and then centrifuged at 5000 g and filtered ([…]) before the DLS experiments. The average of 100 acquisitions for each measure was considered for BTCI (25 µM) and synthetic Bk-related peptides (25 µM) separately and subsequently for the BTCI-Bk complexes (1:1). The formation of complexes was analyzed at 37 °C, considering the relationship of the scattered light intensity signal and the hydrodynamic diameter of the samples, using the Dynamics V6 program (Wyatt Technology Corporation).

[6] = Cardiovascular effects of infusion of Bk and Bk-related peptides with BTCI or vehicle in anesthetized rats; format: in vivo, male Wistar rats; conditions: for aortic vasodilation (change in AVC) / change in mean arterial pressure (MAP) / renal vasodilation (change in RVC): from the baseline value, mean ± SEM, 6 experiments
Description: All experiments were conducted on adult male Wistar rats (280–350 g). They were obtained from the central animal house of the Federal University of Goiás. Experimental procedures were designed with strict adherence to the National Health Institute Guidelines for Care and Use of Laboratory Animals as approved by the Ethics Committee, Federal University of Goiás (034/12).
On the day of experiments, the rats were anesthetized with halothane (2%–3% in 100% O2; Cristália Ltda, Itapira, SP, Brazil) prior to the catheterization of the right femoral vein and artery. After the catheter placement, the rats were removed from the halothane and the anesthesia was maintained with urethane (1.2 g·kg^−1 b.wt., i.v.; Sigma-Aldrich Co.). The trachea was cannulated to reduce airway resistance. The body temperature was kept at 37 ± 0.5 °C with a thermostatically controlled heated table.
Renal blood flow (RBF) and aortic blood flow (ABF) were measured with an ultrasonic transit-time flowmeter (Transonic Systems, Inc., Ithaca, NY, USA). Data were recorded continuously with an analog-to-digital converter (PowerLab 4/25, ML845, AD Instruments, Bella Vista, Australia). Mean arterial pressure (MAP) was determined from the pulsatile signal. Aortic vascular conductance (AVC) and renal vascular conductance (RVC) were calculated by a ratio of ABF and RBF divided by MAP, and were expressed as percentage of baseline. Increasing doses of BTCI (0.3, 3, 30 and 300 µg·kg^−1, i.v.) were infused.
Results are presented as means ± S.E.M. The effects of infusion of Bk, Bk-related peptides and BTCI on cardiovascular parameters were analyzed by one-way ANOVA. […] A value of Student’s t-test p < 0.05 was considered to denote a significant difference.

[7] = system: guinea pig (Cavia porcellus) ileum; test: Smooth muscle constriction force assay, guinea pig ileum
Description: Male guinea pigs (Cavia porcellus) weighing between 200 and 300 g and fasted for 24 h were euthanized using an overdose of anesthetic at 120 mg/kg (ketamine and xylazine). The protocol was approved by the Committee on the Ethics of Animal Experiments of the Institute of Biology, University of Brasilia (Proc. Number 737402/2008). Segments of 2 cm from the terminal portion of the ileum were removed and washed in Tyrode’s solution (g/L: 8.00 NaCl,0.20 KCl, 0.20 CaCl2, 0.21 MgCl2), and attached to a glass rod that was immersed in a physiological bath chamber with a capacity of 10 mL containing Tyrode solution at 37 °C. In the opposite region, a thread of silk was attached to the F-60 isometric transducer connected to a polygraph (NARCO Bio-Systems, Houston, TX, USA). The bath was kept aerated constantly with carbogen (95% O2 + 5% CO2). Previously, as a control, smooth muscle response was analyzed using Bk from Sigma Aldrich. Experiments were done in triplicate, and constriction force was analyzed by addition of Bk and analogues in the absence or presence of BTCI, in three concentrations: 1, 5 or 10 µM. The hypotensive effects of the complexes were also evaluated in the presence of trypsin or chymotrypsin. After each experiment, the bath solution was exchanged three times in order to remove the drug used. Statistical analysis was carried out using the Paleontological Statistics (PAST) Software Package for Education and Data Analysis. A value of Student’s t-test p < 0.05 was considered to denote a significant difference.

[8] = system: BTCI; test: Dynamic light scattering, BTCI-Bk complex formation; format: binding, Vigna unguiculata; conditions: BTCI 25 µM : peptide 25 µM (1:1), 30 min, 2 mM Tris-HCl pH 7.4, 37 °C
Description: as §1

[9] = system: trypsin; test: Pretreatment of peptides with trypsin; format: in vitro ADME
[10] = peptide 120 µg·kg^−1 + BTCI 3 µg·kg^−1, i.v.
[11] = peptide 120 µg·kg^−1 i.v. + BTCI 3 µg·kg^−1 i.v.
[12] = peptide 120 µg·kg^−1 i.v., without BTCI

Kb ([1]; pH 5.0): 0.59 ×10^3 M^−1
Kb ([1]; pH 7.4): 0.22 ×10^3 M^−1
Kb ([1]; pH 9.0): 1.81 ×10^3 M^−1
Kb ([2]; pH 5.0): 0.84 ×10^3 M^−1
Kb ([2]; pH 7.4): 1.02 ×10^3 M^−1
Kb ([2]; pH 9.0): 0.23 ×10^3 M^−1
Kb ([3]; pH 5.0): 0.21 ×10^3 M^−1
Kb ([3]; pH 7.4): 9.68 ×10^3 M^−1
Kb ([3]; pH 9.0): 0.71 ×10^3 M^−1
Substance: Black-eyed pea trypsin and chymotrypsin inhibitor (BTCI), Bowman-Birk inhibitor

Substance: Bradykinin [Bk, reference compound]
binding sites (n) per BTCI molecule ([4]; pH 5.0, 25 °C): 0.88
Binding constant Kb (association) of BTCI in complex with peptide ([4]; pH 5.0, 25 °C): 210 M⁻¹
Stern-Volmer quenching constant KSV of BTCI in complex with peptide ([4]; pH 5.0, 25 °C): 502 M⁻¹
binding sites (n) per BTCI molecule ([4]; pH 7.4, 25 °C): 1.39
Binding constant Kb (association) of BTCI in complex with peptide ([4]; pH 7.4, 25 °C): 9680 M⁻¹
Stern-Volmer quenching constant KSV of BTCI in complex with peptide ([4]; pH 7.4, 25 °C): 553 M⁻¹
binding sites (n) per BTCI molecule ([4]; pH 9.0, 25 °C): 1.06
Binding constant Kb (association) of BTCI in complex with peptide ([4]; pH 9.0, 25 °C): 710 M⁻¹
Stern-Volmer quenching constant KSV of BTCI in complex with peptide ([4]; pH 9.0, 25 °C): 468 M⁻¹
fluorescence intensity of BTCI (Trp^82) on addition of peptide ([4]; peptide 25 to 500 µM): progressive decrease in fluorescence intensity
polydispersity, peptide [5]: lower than 0.15
effect of association with BTCI on aortic vasodilation [6, 10]: potentiated
effect of association with BTCI on renal vasodilation [6, 10]: potentiated renal
aortic vasodilation (change in AVC) [6, 11]: 16 ± 1.4%
change in mean arterial pressure (MAP) [6, 11]: −10 ± 1.1 mmHg
renal vasodilation (change in RVC) [6, 11]: 12 ± 1.1%
aortic vasodilation (change in AVC) [6, 12]: 9 ± 1.6%
change in mean arterial pressure (MAP) [6, 12]: −7 ± 1.2 mmHg
renal vasodilation (change in RVC) [6, 12]: 9 ± 2%
effect of BTCI on Bk-induced smooth muscle contraction ([7]; Bk 5.0 µM): slightly increased the smooth muscle contraction
effect of BTCI on Bk-induced smooth muscle contraction ([7]; Bk 10.0 µM): the same effect only when BTCI inhibited trypsin
smooth muscle contraction ([7]; free peptide, 1, 5, 10 µM, 37 °C, triplicate): able to induce smooth muscle contraction in a concentration-responsive manner
smooth muscle contraction in association with BTCI in the presence of serine proteases ([7]; with BTCI and trypsin or chymotrypsin, 1.0, 5.0, 10.0 µM): able to induce smooth muscle contraction in a concentration-responsive manner even in association with BTCI in the presence of serine proteases
hydrodynamic diameter of BTCI in the presence of peptide [8]: increased from 1.7 nm to 3.3 nm

Substance: VPPGFTPFRVD [Bk1, [Val]^1[Thr]^6-bradykinyl-Val-Asp]
product released by trypsin pretreatment in vitro ([9]; HPLC and mass spectrometry, data not shown): release the active Bk fragment
cleavage by trypsin (site) ([9]; pretreatment with trypsin): cleaved on Arg^9-Val^10
